Data: patent US20130303565A1 (priority 2012, published 2013)

Legend:
[1] = test system: U937 (monocytic leukemia cells); assay: Cell proliferation assay (Trypan Blue dye exclusion), U937; assay type: cell-based; details: each leukemic cell line incl. U937, tritoqualine 10^-5-10^-8 M, 72 hr
Procedure: (§1) U937 (monocytic leukemia cells), and HL-60 (human promyelocytic cells) and TF1 (Human erythro leukemia cells) were obtained from cell bank of Necker. HL-60, U937 and TF1 were maintained. in RPMI-1640 medium supplemented with 10% FCS, 100 U/mL penicillin, and 100 μg/mL streptomycin. These cells were cultured in an incubator containing humidified air with 5% CO2 at […].
(§2) HL60, U937, TF1 cells (5×10^5 cells/mL) in conditioning medium were cultured with various concentrations of tritoqualine (10^−5-10^−8 M) in the presence or absence of G-CSF (50 ng/mL) in 6-well flat-bottomed plates for 72 hr. Cell proliferation assay and viability examination were performed using the Trypan Blue dye exclusion method. All experiments were performed in triplicate.
(§3) The maximum effect is on TF1 cells line. The inhibition is about 85%. The effect on HL60 is only 60% of inhibition. This effect dose is equivalent to the dose of 200 mg to 2000 mg of tritoqualine in human. This effect on leukemia clone is very surprising because tritoqualine is a molecule with low toxicity.

histamine H4 = histamine H4 (Homo sapiens, UniProt Q9H3N8); assay: Histamine H4 agonist activity
Sequence of histamine H4 (Q9H3N8 whole entry): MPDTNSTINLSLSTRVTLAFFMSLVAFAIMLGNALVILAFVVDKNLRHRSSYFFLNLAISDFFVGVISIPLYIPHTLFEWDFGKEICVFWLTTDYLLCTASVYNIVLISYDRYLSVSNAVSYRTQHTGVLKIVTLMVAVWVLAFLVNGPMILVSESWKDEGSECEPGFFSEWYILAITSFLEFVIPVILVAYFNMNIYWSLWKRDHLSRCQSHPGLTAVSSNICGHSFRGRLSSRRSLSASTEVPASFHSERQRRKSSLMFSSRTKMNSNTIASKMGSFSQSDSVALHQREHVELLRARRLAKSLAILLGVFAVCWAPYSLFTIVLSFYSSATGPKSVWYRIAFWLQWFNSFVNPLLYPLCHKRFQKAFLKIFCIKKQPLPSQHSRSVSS

[2] = test system: HL-60 (human promyelocytic cells); assay: Cell proliferation assay (Trypan Blue dye exclusion), HL60; assay type: cell-based; details: tritoqualine 10^-5-10^-8 M, 72 hr, with or without G-CSF 50 ng/mL
Procedure: as §1, §2, §3

[3] = test system: TF1 (Human erythro leukemia cells); assay: Cell proliferation assay (Trypan Blue dye exclusion), TF1; assay type: cell-based; details: tritoqualine 10^-5-10^-8 M, 72 hr, with or without G-CSF 50 ng/mL
Procedure: as §1, §2, §3

Bcr-Abl tyrosine kinase = details: inhibiting activity of the Bcr-Abl tyrosine kinase and proliferation, versus imatinib; cited from earlier work

Row | SMILES | inhibition of proliferation and viability (in words) [1] | histamine H4 activity (in words) (histamine H4) | inhibition of proliferation and viability [2] | inhibition of proliferation and viability (maximum effect) [3] | potency relative to imatinib (Bcr-Abl tyrosine kinase)
1 | CCOc1c(N)c2c(c(OCC)c1OCC)C(C1c3c(cc4c(c3OC)OCO4)CCN1C)OC2=O (centres unmarked) [tritoqualine, 7-Amino-4,5,6-triethoxy-3-(5,6,7,8-tetrahydro-4-methoxy-6-methyl-1,3-dioxolo[4,5-g]isoquinolin-5-yl) phthalide] | dose-dependently inhibited proliferation and viability | histamine H4 agonist | 60% | about 85% | 
2 | Cc1cn(-c2cc(NC(=O)c3ccc(C)c(Nc4nccc(-c5cccnc5)n4)c3)cc(C(F)(F)F)c2)cn1 [Nilotinib] |  |  |  |  | 10-30 fold
